Here are results for one molecule from patent US20120196899A1, “METHODS AND PRODUCTS FOR TREATING INFLAMMATION” (Rock Creek Pharmaceuticals, Inc., priority 2010, published 2012).

Where two headings read alike, the source gives them in different places.

The target in assay [1] is T1, nAChR α3/β4 (Homo sapiens, UniProt P30926+P32297). Description: nAChR α3/β4 channel agonist assay (FLIPR, Fluo-8 calcium). Particulars: 30 μM Ach = 100%, HBPS = 0%.
Experimental: The following three (3) channels were evaluated: • 1. nAChR α3/β4 (encoded by the human CHRNA3 and CHRNB4 gene and stably expressed in CHO cells); • 2. nAChR α4/β2 (CHRNA4 and CHRNB2 gene and transiently expressed in HEK293 cells); and • 3. nAChR α7 (encoded by the human nicotinic α7 gene coexpressed in CHO cells with the chaperone RIC-3 encoded by the human RIC3 gene).
The ability of each test article to act as an agonist, a positive allosteric modulator or antagonist of three nAChR receptor channels was evaluated in the presence of 0.1 atropine. Both test articles were evaluated for responses on each nAChR channel at eight (8) concentrations: 0.3, 1, 3, 10, 30, 100, 300, and 1000 μM (n=4 for each concentration).
(§1) HEK293 or CHO cells were transiently or stably transfected with the appropriate human ion channel cDNAs. Stable transfectants were selected by coexpression with the antibiotic-resistance gene(s) incorporated into the expression plasmid(s). Selection pressure was maintained by including selection antibiotics in the culture medium. HEK293 cells were cultured in Dulbecco's Modified Eagle Medium/Nutrient Mixture F-12 (D-MEM/F-12) supplemented with 10% fetal bovine serum, 100 U/mL penicillin G sodium, 100 g/mL streptomycin sulfate and appropriate selection antibiotics. CHO cells were cultured in Ham's F-12 supplemented with 10% fetal bovine serum, 100 U/mL penicillin G sodium, 100 g/mL streptomycin sulfate and appropriate selection antibiotics.
(§2) For FLIPR TETRA™ assay, cells were plated in 384-well black wall, flat clear bottom microtiter plates (Type: BD Biocoat Poly-D-Lysine Multiwell Cell Culture Plate) at 20,000 to 30,000 cells per well (384-well plate). Cells were incubated at 37° C. overnight or until the cells reached a sufficient density in the wells (near confluent monolayer) to use in fluorescence assays. For α4β2 assay, cells were incubated at 27° C. for at least 7 hours before use.
(§3) Experiments were performed with either the FLIPR calcium sensitive dye kit (Fluo-8, ABDbioquest, for nAChR α3/β4 and nAChR α7) or FLIPR membrane potential kit (Molecular Devices, for nAChR α4/β2) according to the manufacturer's instructions. Briefly, cells were incubated with 201 dye for 30 min at 37° C. After dye loading period, for the agonist assay, 5 μl of the test, vehicle, or control articles at concentration of 5 times of final concentration were applied to the cells without stimulation. For the positive allosteric modulation (PAM) and antagonist assay, after test article application, the cells were stimulated with either low dose (for PAM) or high dose (for antagonist) of Ach.
Concentration-response data was fitted to a Hill equation of the following form:
where Base is the response at low concentrations of test article, Max is the maximum response at high concentrations, xhalf is the EC50 or IC50, the concentration of test article producing either half-maximal activation or inhibition, and rate is the Hill coefficient. Nonlinear least squares fits were made assuming a simple one-to-one binding model.
The ability of both test articles to act as an agonist of nAChR carried out in the absence of the positive control agonist. The signal elicited in the presence of the positive control agonist, 30 μM acetylcholine (Ach) was set to 100% and the signal from the vehicle control, HEPES-buffered physiological saline (HBPS) solution was set to 0%.
The target of assay [2] is T2, nAChR α7 (Homo sapiens, UniProt P36544).
T2 construct: host or cells: CHO cells
The assay can be described thus: nAChR α7 channel agonist assay (FLIPR, with PNU-120596). It counts as cell-based. Particulars: in presence of PNU-120596, 30 μM Ach + 10 μM PNU-120596 = 100%, HBPS = 0%. The method, then:
Therefore, the assay of agonist activity for either Ach or for the test articles was conducted in the presence of the positive allosteric modulator.

The target of assay [3] is T1, nAChR α3/β4. Particulars: with 10 μM Ach (= 0%), 10 μM Ach + 1 μM epibatidine = 100%.
Experimental: as §1, §2, §3
The signal elicited in the presence of the positive control agonist and allosteric modulator (10 μM Ach+1 μM epibatidine) was set to 100% and the signal from the agonist control (10 μM Ach) was set to 0%.

T2 sequence (P36544 23-502): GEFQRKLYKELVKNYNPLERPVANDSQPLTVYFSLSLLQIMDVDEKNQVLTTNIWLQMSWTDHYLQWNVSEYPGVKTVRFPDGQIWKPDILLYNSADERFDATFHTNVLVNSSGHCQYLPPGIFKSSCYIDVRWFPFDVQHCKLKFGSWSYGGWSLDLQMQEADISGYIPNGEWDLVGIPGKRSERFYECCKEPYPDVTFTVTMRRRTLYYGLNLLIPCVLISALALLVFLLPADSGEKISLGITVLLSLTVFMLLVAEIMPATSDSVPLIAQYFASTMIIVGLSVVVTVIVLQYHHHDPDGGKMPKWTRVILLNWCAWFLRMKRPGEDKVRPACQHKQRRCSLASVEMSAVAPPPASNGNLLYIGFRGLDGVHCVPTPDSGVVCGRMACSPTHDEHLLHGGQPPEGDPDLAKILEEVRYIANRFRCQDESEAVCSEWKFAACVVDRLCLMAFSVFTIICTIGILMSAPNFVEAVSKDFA
T1 sequence (P32297 32-505): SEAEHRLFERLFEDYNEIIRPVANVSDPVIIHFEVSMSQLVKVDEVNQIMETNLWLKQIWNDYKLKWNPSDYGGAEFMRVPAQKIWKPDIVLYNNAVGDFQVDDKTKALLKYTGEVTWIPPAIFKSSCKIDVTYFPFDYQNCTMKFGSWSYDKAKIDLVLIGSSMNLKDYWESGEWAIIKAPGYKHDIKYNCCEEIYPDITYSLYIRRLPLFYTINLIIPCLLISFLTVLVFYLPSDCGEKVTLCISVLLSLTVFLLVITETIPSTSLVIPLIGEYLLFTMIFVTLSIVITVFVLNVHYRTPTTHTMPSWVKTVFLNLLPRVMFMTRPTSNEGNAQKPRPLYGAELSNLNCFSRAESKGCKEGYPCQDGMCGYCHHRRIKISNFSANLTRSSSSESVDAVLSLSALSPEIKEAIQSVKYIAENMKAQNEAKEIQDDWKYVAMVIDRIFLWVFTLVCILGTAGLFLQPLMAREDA
T1 sequence (P30926 22-498): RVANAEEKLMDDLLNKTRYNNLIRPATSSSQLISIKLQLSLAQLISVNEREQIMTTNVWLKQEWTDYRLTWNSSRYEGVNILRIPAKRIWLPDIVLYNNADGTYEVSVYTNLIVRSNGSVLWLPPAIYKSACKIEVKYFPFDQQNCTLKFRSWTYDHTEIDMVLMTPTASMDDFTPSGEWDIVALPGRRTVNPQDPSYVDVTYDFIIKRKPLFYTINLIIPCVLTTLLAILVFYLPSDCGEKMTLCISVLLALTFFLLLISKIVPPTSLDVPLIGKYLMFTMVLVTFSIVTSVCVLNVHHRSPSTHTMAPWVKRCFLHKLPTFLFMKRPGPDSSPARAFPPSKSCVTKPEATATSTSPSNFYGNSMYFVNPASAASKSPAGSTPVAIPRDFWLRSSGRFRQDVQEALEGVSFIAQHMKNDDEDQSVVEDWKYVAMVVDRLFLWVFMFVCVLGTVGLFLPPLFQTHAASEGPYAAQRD

In the case of `C1=CCC(c2cccnc2)NC1` (racemic) [Anatabine (racemate)], the “Normalized % Activation” value in assay [1] (test conc 0.3 μM) was 1.32%; in assay [1] (test conc 1 μM) it was −0.01%; in assay [1] (test conc 3 μM), −1.53%; in assay [1] (test conc 10 μM), −2.73%; in assay [1] (test conc 30 μM), 4.93%; in assay [1] (test conc 100 μM) it was 10.44%. Besides, the “Normalized % Activation” value in assay [1] (test conc 300 μM) is 16.97%; in assay [2] (test conc 0.3 μM), −1.81%; in assay [2] (test conc 1 μM), 0.34%; in assay [2] (test conc 3 μM), 0.78%; in assay [2] (test conc 10 μM), 1.65%; in assay [2] (test conc 30 μM), 2.27%. In addition, the figures for the “Normalized % Activation” value in assay [2] (test conc 100 μM), in assay [2] (test conc 300 μM) and in assay [2] (test conc 1000 μM) were 5.69%, 14.45% and 60.41%, respectively. Further, the “Normalized % Potentiation” value in assay [3] (test conc 0.3 μM) was −1.98%; in assay [3] (test conc 1 μM), −4.08%; in assay [3] (test conc 3 μM) it was −2.88%; in assay [3] (test conc 10 μM), −3.20%; in assay [3] (test conc 30 μM), −8.50%; in assay [3] (test conc 100 μM), −9.46%. The “Normalized % Potentiation” value in assay [3] (test conc 300 μM) is given as −9.38%; in assay [3] (test conc 1000 μM), −9.17%.
